Source: PubChem BioAssay (NCI)
Where “and” joins values, the source holds several entries; their conditions need not be identical. Identical values can stand only once.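 Assay format: 96-well plates, 48-hour exposure. Abbreviation: GI50, concentration required for 50% inhibition of growth. The concentration for full growth arrest is given as TGI.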

How the values were obtained:
Test in all cases: NCI-60 cell line screen, 48 h
[1] = tested on: ACHN renal
[2] = tested on: CAKI-1 renal
[3] = tested on: HCT-116 colon
[4] = tested on: HOP-92 NSCLC
[5] = tested on: K-562 leukemia
[6] = tested on: NCI-H522 lung
[7] = tested on: OVCAR-4 ovarian
[8] = tested on: PC-3 prostate
[9] = tested on: TK-10 renal
[10] = tested on: UO-31 renal

In the case of `CCCCc1n(Cc2ccc3ccccc3n2)cc[n+]1Cc1ccc2ccccc2c1`, the GI50 [1] is reported as 2.89 µM, the TGI [1] is reported as 8.8 µM and the GI50 [2] is reported as 1.62 µM. For the same compound, the TGI [2] was 3.64 µM, the GI50 [3] was 0.639 µM and the TGI [3] was 2.11 µM. It also gave a GI50 [4] of 0.22 µM, a TGI [4] of 1.11 µM and a GI50 [5] of 0.359 µM. For the same compound, the TGI [5] was 2.36 µM, the GI50 [6] was 0.58 µM and the TGI [6] was 2.18 µM. It also gave a GI50 [7] of 0.262 µM, a TGI [7] of 1.63 µM and a GI50 [8] of 0.786 µM. The TGI [8] was 2.5 µM, the GI50 [9] was 1.49 µM and the TGI [9] was 3.69 µM. For the same compound, the GI50 [10] was 3.22 µM and the TGI [10] was 13.6 µM.
`CC[C@H](C)C(=O)O[C@H]1C[C@@H](C)C=C2C=C[C@H](C)[C@H](CC[C@@H]3C[C@@H](O)CC(=O)O3)[C@H]21` was tested, and the GI50 [1] was 3.43 µM and 1.38 µM, the TGI [1] was 29.8 µM and 6.03 µM and 23.4 µM and the GI50 [2] was 2.14 µM and 1.9 µM. For the same compound, the TGI [2] was 6.59 µM and 6.21 µM and 4.78 µM, the GI50 [3] was 3.77 µM and 2.05 µM and the TGI [3] was 24.5 µM and 16.2 µM. For the same compound, the GI50 [4] was 0.172 µM and 0.102 µM, the TGI [4] was 0.649 µM and 0.657 µM and 0.141 µM and the GI50 [5] was 27.7 µM and 12.8 µM. For the same compound, the TGI [5] was greater than 100 µM, the GI50 [6] was 1.98 µM and 1.66 µM and the TGI [6] was 8.53 µM and 22.3 µM. The GI50 [7] was 10.9 µM and 17.6 µM, the TGI [7] was 61.1 µM and > 55.5 µM and > 30 µM and the GI50 [8] was 0.967 µM and 1.76 µM. For the same compound, the TGI [8] was greater than 100 µM, the GI50 [9] was 26.3 µM and 19.3 µM and the TGI [9] was greater than 100 µM. For the same compound, the GI50 [10] was 11 µM and 4.7 µM and the TGI [10] was 80.7 µM and 29.6 µM and 14.2 µM.
Compound `CCN(CC)CCC(CNc1c(C)cnc2cc(Cl)ccc12)c1ccc(Cl)c(Cl)c1` (stereo unspecified) has a GI50 [1] of 4.51 µM, a TGI [1] of 17.5 µM and a GI50 [2] of 2.59 µM. It also gave a TGI [2] of 11.5 µM, a GI50 [3] of 1.36 µM and a TGI [3] of 8.86 µM. For the same compound, the GI50 [4] was 1.96 µM, the TGI [4] was 8.03 µM and the GI50 [5] was 1.2 µM. It also gave a TGI [5] of 3.51 µM, a GI50 [6] of 3.78 µM and a TGI [6] of 16 µM. The GI50 [7] was 3.81 µM, the TGI [7] was 19.2 µM and the GI50 [8] was 4.1 µM. The TGI [8] was 16.2 µM, the GI50 [9] was 5.03 µM and the TGI [9] was 17.1 µM. It also gave a GI50 [10] of 2.59 µM and a TGI [10] of 13.9 µM.
`CCN1C(=O)N[C@H]2[C@@H]3NC(=O)c4ccc(Cl)n4[C@@H]3C[C@]21O` gave a GI50 [1] of 1.5 µM, a TGI [1] of 12.4 µM and a GI50 [2] of 2.87 µM. The TGI [2] was greater than 100 µM, the GI50 [3] was 0.397 µM and the TGI [3] was 8.32 µM. The GI50 [4] was 1.04 µM, the TGI [4] was 7.69 µM and the GI50 [5] was 0.363 µM. It also gave a TGI [5] of 5.09 µM, a GI50 [6] of 0.288 µM and a TGI [6] of 1.76 µM. The GI50 [7] was 0.571 µM, the TGI [7] was 7.99 µM and the GI50 [8] was 1.68 µM. It also gave a TGI [8] of 11.2 µM, a GI50 [9] of 1.66 µM and a TGI [9] of 12.5 µM. It also gave a GI50 [10] of 3.19 µM and a TGI [10] of 24.1 µM.
With `COc1cc(NC(=O)c2cc3ccccc3cc2O)c(OC)cc1Cl` the GI50 [1] was 1.81 µM, the TGI [1] was 5.23 µM and the TGI [2] was 3.76 µM. The GI50 [3] was 2.48 µM, the TGI [3] was 11.1 µM and the GI50 [4] was 1.56 µM. The TGI [4] was 4.95 µM, the GI50 [5] was 1.84 µM and the GI50 [6] was 1.89 µM. For the same compound, the TGI [6] was 9.41 µM, the GI50 [7] was 2.12 µM and the TGI [7] was 8.21 µM. The GI50 [8] was 1.56 µM, the TGI [8] was 4.46 µM and the GI50 [9] was 3.64 µM. It also gave a TGI [9] of 7.7 µM, a GI50 [10] of 1.16 µM and a TGI [10] greater than 24.9 µM.
`Cn1c(=O)c2[nH]c(CCS)nc2n(C)c1=O` was tested, and the TGI [1] was greater than 100 µM, the TGI [2] was greater than 100 µM and the TGI [3] was greater than 100 µM. For the same compound, the TGI [4] was greater than 100 µM, the TGI [5] was greater than 100 µM and the TGI [6] was greater than 100 µM. It also gave a TGI [7] greater than 100 µM, a TGI [8] greater than 100 µM and a TGI [9] greater than 100 µM. For the same compound, the TGI [10] was greater than 100 µM.
`CCN(CC)CCOc1ccccc1-n1c(C)ccc1-c1ccccc1` was tested, and the GI50 [1] was 15.5 µM, the TGI [1] was 30.3 µM and the GI50 [2] was 13.6 µM. The TGI [2] was 28 µM, the GI50 [3] was 12 µM and the TGI [3] was 25.8 µM. It also gave a GI50 [4] of 12.6 µM, a TGI [4] of 32.8 µM and a GI50 [5] of 10.7 µM. The TGI [5] was 32 µM, the GI50 [6] was 11.6 µM and the TGI [6] was 28.3 µM. The GI50 [7] was 12.2 µM, the TGI [7] was 25.7 µM and the GI50 [8] was 12.4 µM. For the same compound, the TGI [8] was 29.2 µM, the GI50 [9] was 14.5 µM and the TGI [9] was 29.2 µM. The GI50 [10] was 10.5 µM and the TGI [10] was 24.4 µM.
Work on `COc1ccc(-n2nc(C(=O)NCC(=O)Nc3nc4cc(OC)ccc4s3)c3ccccc3c2=O)cc1` yielded a GI50 [1] of 1.1 µM, a TGI [1] of 8.7 µM and a GI50 [2] of 0.366 µM. It also gave a TGI [2] of 2.99 µM, a GI50 [3] of 1.64 µM and a TGI [3] greater than 100 µM. It also gave a GI50 [4] of 0.572 µM, a TGI [4] of 1.68 µM and a GI50 [5] greater than 37.7 µM. It also gave a TGI [5] greater than 100 µM, a GI50 [6] of 1.69 µM and a TGI [6] of 7.99 µM. The GI50 [7] was 0.434 µM, the TGI [7] was 2.57 µM and the GI50 [8] was 1.26 µM. The GI50 [9] was 0.389 µM, the TGI [9] was 1.52 µM and the GI50 [10] was 2.28 µM.
